In patent publication US10953027B2, “Active agents and methods of their use for the treatment of metabolic disorders and nonalcoholic fatty liver disease” (Flagship Pioneering Innovations V, Inc., priority 2018, dated 2021):

How the values were obtained:
Format in all cases: in vitro ADME
[1] = Assay 2. Stability in Simulated Intestinal Fluid (SIF); conditions: 1 μM, 37° C., SIF pH 6.7 with pancreatin
In short: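 Degradation rate measured by LC/MS after acetonitrile quench of timed aliquots, starting at T0. Test compound 1 μM in simulated intestinal fluid (pH 6.7 phosphate buffer, FaSSIF powder, pancreatin), shaken at 37 °C.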

[2] = Assay 3. Fecal Incubation Stability; conditions: 1 or 10 μM, human fecal slurry, anaerobic
Protocol: Assay 3. Fecal Incubation Stability. This assay was used to assess the stability of an acylated active agent in a large intestine. All experiments were performed in an anaerobic chamber containing 90% nitrogen, 5% hydrogen and 5% carbon dioxide. Human fecal matter in a slurry (15% WV) is added to 96 well plates containing YCFA media or other suitable media (1.6 mL). Compounds were added to each individual well to reach a final analyte concentration of 1 or 10 μM, and the material was mixed by pipetting. At set time points a sample was removed, quenched with acetonitrile, and analyzed by LC/MS.

[3] = Assay 1. Stability in Simulated Gastric Fluid (SGF); conditions: 1 μM, 37° C., SGF pH 1.6 with pepsin
In short: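 Simulated gastric fluid, prepared fresh as NaCl buffer at pH 1.6 with 0.1 mg/mL pepsin and FaSSIF powder, received test compound to 1 μM final and was held at 37 °C. LC/MS of acetonitrile-quenched samples, taken immediately and then periodically, gave degradation rates.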

| Structure (SMILES) | Assay 2 (SIF) (% @ Remaining 4 hours) [1] | Assay 3 (% Remaining at 24 h) [2] | Assay 1 (SGF) (% Remaining @ 1 hours) [3] |
| --- | --- | --- | --- |
| O=C(CCc1c[nH]c2ccccc12)O[C@@H]1O[C@H](C(=O)O)[C@@H](OC(=O)CCc2c[nH]c3ccccc23)[C@H](OC(=O)CCc2c[nH]c3ccccc23)[C@H]1OC(=O)CCc1c[nH]c2ccccc12 [Compound 82, (2S,3S,4S,5R,6S)-3,4,5,6-tetrakis({[3-(1H-indol-3-yl)propanoyl]oxy})oxane-2-carboxylic Acid] | A (A: <25% of the tested compound remaining) | A (A: <25% of the tested compound remaining) | – |
| CCCC(=O)OC[C@H]1O[C@H](OC)[C@H](OC(=O)CCC)[C@@H](OC(=O)CCC)[C@H]1OC(=O)CCC [Compound 89, [(2R,3S,4S,5R,6S)-3,4,5-tris(butanoyloxy)-6-methoxyoxan-2-yl]methyl Butanoate] | A (A: <25% of the tested compound remaining) | A (A: <25% of the tested compound remaining) | – |
| CCCC(=O)OC[C@H]1O[C@@H](OC)[C@H](OC(=O)CCC)[C@@H](OC(=O)CCC)[C@@H]1OC(=O)CCC [Compound 91, [(2R,3R,4S,5R,6R)-3,4,5-tris(butanoyloxy)-6-methoxyoxan-2-yl]methyl Butanoate] | A (A: <25% of the tested compound remaining) | A (A: <25% of the tested compound remaining) | – |
| CCC(=O)OC[C@H]1O[C@@H](OC)[C@H](OC(=O)CC)[C@@H](OC(=O)CC)[C@@H]1OC(=O)CC [Compound 92, [(2R,3R,4S,5R,6R)-6-methoxy-3,4,5-tris(propanoyloxy)oxan-2-yl]methyl Propanoate] | A (A: <25% of the tested compound remaining) | A (A: <25% of the tested compound remaining) | – |
| CCCC(=O)OC[C@H]1O[C@@H](OC)[C@H](OC(=O)CCC)[C@@H](OC(=O)CCC)[C@H]1OC(=O)CCC [Compound 93, [(2R,3S,4S,5R,6R)-3,4,5-tris(butanoyloxy)-6-methoxyoxan-2-yl]methyl Butanoate] | A (A: <25% of the tested compound remaining) | A (A: <25% of the tested compound remaining) | – |
| CCC(=O)OC[C@H]1O[C@@H](OC)[C@H](OC(=O)CC)[C@@H](OC(=O)CC)[C@H]1OC(=O)CC [Compound 94, [(2R,3S,4S,5R,6R)-6-methoxy-3,4,5-tris(propanoyloxy)oxan-2-yl]methyl Propanoate] | A (A: <25% of the tested compound remaining) | A (A: <25% of the tested compound remaining) | – |
| C[C@@H]1O[C@@H](OC(=O)CCc2c[nH]c3ccccc23)[C@@H](OC(=O)CCc2c[nH]c3ccccc23)[C@H](OC(=O)CCc2c[nH]c3ccccc23)[C@@H]1OC(=O)CCc1c[nH]c2ccccc12 [Compound 97, (2S,3S,4R,5R,6S)-3,4,5-tris({[3-(1H-indol-3-yl)propanoyl]oxy})-6-methyloxan-2-yl 3-(1H-indol-3-yl)propanoate] | A (A: <25% of the tested compound remaining) | A (A: <25% of the tested compound remaining) | – |
| CCCC(=O)O[C@@H]1[C@@H](OC(=O)CCC)[C@H](OC)OC[C@H]1OC(=O)CCC [Compound 121, (2R,3R,4S,5R)-4,5-bis(butanoyloxy)-2-methoxyoxan-3-yl Butanoate] | A (A: <25% of the tested compound remaining) | A (A: <25% of the tested compound remaining) | – |
| CCC(=O)O[C@H]1[C@H](OC(=O)CC)[C@H](OC(=O)CCc2c[nH]c3ccccc23)O[C@@H](C)[C@H]1OC(=O)CC [Compound 155, (2S,3S,4R,5R,6S)-6-methyl-3,4,5-tris(propanoyloxy)oxan-2-yl 3-(1H-indol-3-yl)propanoate] | C (C: >75% of the tested compound remaining) | A (A: <25% of the tested compound remaining) | – |
| O=C(Cc1c[nH]c2ccccc12)O[C@@H]1OC[C@H](OC(=O)Cc2c[nH]c3ccccc23)[C@H](OC(=O)Cc2c[nH]c3ccccc23)[C@H]1OC(=O)Cc1c[nH]c2ccccc12 [Compound 178, (2S,3R,4S,5S)-3,4,5-tris({[2-(1H-indol-3-yl)acetyl]oxy})oxan-2-yl 2-(1H-indol-3-yl)acetate] | – | A (A: <25% of the tested compound remaining) | – |
| O=C(CCc1c[nH]c2ccccc12)O[C@H]1OC[C@H](OC(=O)CCc2c[nH]c3ccccc23)[C@H](OC(=O)CCc2c[nH]c3ccccc23)[C@H]1OC(=O)CCc1c[nH]c2ccccc12 [Compound 181, (2R,3R,4S,5S)-3,4,5-tris({[3-(1H-indol-3-yl)propanoyl]oxy})oxan-2-yl 3-(1H-indol-3-yl)propanoate] | A (A: <25% of the tested compound remaining) | A (A: <25% of the tested compound remaining) | – |
| CCCC(=O)O[C@H]1[C@H](OC(=O)CCC)COC(O)[C@@H]1OC(=O)CCC (stereo partly drawn) [Compound 190, (3R,4S,5R)-4,5-bis(butanoyloxy)-2-hydroxyoxan-3-yl Butanoate] | A (A: <25% of the tested compound remaining) | A (A: <25% of the tested compound remaining) | – |
| CCCC(=O)Oc1cc(OC(=O)CCC)c2c(=O)cc(-c3ccc(OC(=O)CCC)c(OC(=O)CCC)c3)oc2c1 [Compound 202, 2-[3,4-bis(butanoyloxy)phenyl]-5-(butanoyloxy)-4-oxo-4H-chromen-7-yl Butanoate] | A (A: <25% of the tested compound remaining) | – | C (C: >75% of the tested compound remaining) |
| [2H]C([2H])([2H])C([2H])([2H])CC(=O)O[C@@H]1[C@@H](OC(=O)CC([2H])([2H])C([2H])([2H])[2H])[C@H](Oc2ccc(N)cc2C(=O)O)OC[C@H]1OC(=O)CC([2H])([2H])C([2H])([2H])[2H] [Compound 230, 5-amino-2-{[(2S,3R,4S,5R)-3,4,5-tris[(3,3,4,4,4-^2H5)butanoyloxy]oxan-2-yl]oxy}benzoic Acid] | – | B (B: 25-75% of the tested compound remaining) | – |
| [2H]C([2H])([2H])C([2H])([2H])CC(=O)O[C@@H]1[C@@H](OC(=O)CC([2H])([2H])C([2H])([2H])[2H])[C@H](Oc2ccc(N)cc2C(=O)O)OC[C@H]1O [Compound 234, 5-amino-2-{[(2S,3R,4S,5R)-3,4-bis[(3,3,4,4,4-^2H5)butanoyloxy]-5-hydroxyoxan-2-yl]oxy}benzoic Acid] | – | B (B: 25-75% of the tested compound remaining) | – |
| O=C(CCc1c[nH]c2ccccc12)Oc1cc(C(=O)O)cc(OC(=O)CCc2c[nH]c3ccccc23)c1OC(=O)CCc1c[nH]c2ccccc12 [Compound 240, 3,4,5-tris({[3-(1H-indol-3-yl)propanoyl]oxy})benzoic Acid] | C (C: >75% of the tested compound remaining) | – | A (A: <25% of the tested compound remaining) |
| CCC(=O)Oc1ccc2c(c1)oc(=O)c1cc(OC(=O)CC)c(OC(=O)CC)cc12 [Compound 242, [6-oxo-8,9-di(propanoyloxy)benzo[c]chromen-3-yl] propanoate] | A (A: <25% of the tested compound remaining) | – | C (C: >75% of the tested compound remaining) |
| O=C(CCc1c[nH]c2ccccc12)Oc1ccc2c(c1)oc(=O)c1cc(OC(=O)CCc3c[nH]c4ccccc34)c(OC(=O)CCc3c[nH]c4ccccc34)cc12 [Compound 246, 8,9-bis({[3-(1H-indol-3-yl)propanoyl]oxy})-6-oxo-6H-benzo[c]chromen-3-yl 3-(1H-indol-3-yl)propanoate] | B (B: 25-75% of the tested compound remaining) | B (B: 25-75% of the tested compound remaining) | – |
| CCCC(=O)Oc1ccc2c(c1)oc(=O)c1cc(OC(=O)CCC)c(OC(=O)CCC)cc12 [Compound 248, 8,9-bis(butanoyloxy)-6-oxo-6H-benzo[c]chromen-3-yl Butanoate] | – | A (A: <25% of the tested compound remaining) | – |
| O=C(CCc1c[nH]c2ccccc12)O[C@@H]1[C@H](OC(=O)CCc2c[nH]c3ccccc23)C=C(C(=O)O)C[C@H]1OC(=O)CCc1c[nH]c2ccccc12 [Compound 253, (3R,4S,5R)-3,4,5-tris({[3-(1H-indol-3-yl)propanoyl]oxy})cyclohex-1-ene-1-carboxylic Acid] | B (B: 25-75% of the tested compound remaining) | – | B (B: 25-75% of the tested compound remaining) |
| CCC(=O)O[C@@H]1[C@H](OC(=O)CC)C=C(C(=O)O)C[C@H]1OC(=O)CC [Compound 254, (3R,4S,5R)-3,4,5-tris(propanoyloxy)cyclohex-1-ene-1-carboxylic Acid] | – | B (B: 25-75% of the tested compound remaining) | – |
| O=C(Cc1c[nH]c2ccccc12)Oc1ccc(/C=C/c2cc(OC(=O)Cc3c[nH]c4ccccc34)cc(OC(=O)Cc3c[nH]c4ccccc34)c2)cc1 [Compound 260, 4-[(1E)-2-[3,5-bis({[2-(1H-indol-3-yl)acetyl]oxy})phenyl]ethenyl]phenyl 2-(1H-indol-3-yl)acetate] | – | A (A: <25% of the tested compound remaining) | – |
